Measured values: US7514446B2, “Pyrimidine compounds” (SmithKline Beecham Corporation, priority 2003, dated 2009)
Where a name gives a salt, the structure may show the parent alone.

target: T1, PLK1 kinase domain (Homo sapiens, UniProt P53350); test: Assay for inhibition of PLK1 (SPA, 33P-ATP, His-tagged PLK kinase domain); assay type: biochemical; conditions: 2 μM ATP, read-out: Ave pIC50 PLK Enzyme Inhibition (converted)
T1 construct: made in house; host or cells: baculovirus-infected T. ni insect cells
Protocol: I. Assay for Inhibition of PLK1
A. Preparation of 6× N-terminal His-tagged PLK Kinase Domain
6× N-terminal His-tagged PLK kinase domain (amino acids 21-346 preceded by […]) was prepared from baculovirus infected T. ni cells under polyhedrin promoter control. All procedures were performed at 4° C. Cells were lysed in 25 mM HEPES, 200 mM NaCl, 25 mM imidazole; pH 8.0. The homogenate was centrifuged at 14K rpm in a SLA-1500 rotor for 40 min and the supernatant filtered through a 1.2 micron filter. The supernatant was loaded onto a Nickel chelating Sepharose (Amersham Pharmacia) column and washed with 25 mM HEPES, 500 mM NaCl, 25 mM imidazole; pH 8.0. The column was then washed with a 16.6% B step where buffer B is 25 mM HEPES, 500 mM NaCl, 300 mM imidazole; pH 8.0. Protein was eluted using a 10-column volume linear gradient from 16.6% B to 100% B. Fractions containing PLK were determined by SDS-PAGE. PLK was concentrated using a 10 kDa molecular weight cutoff membrane and then loaded onto a Superdex 75 gel filtration (Amersham Pharmacia) column equilibrated in 25 mM HEPES, 1 mM DTT, 500 mM NaCl; pH 8.0. Fractions containing PLK were determined by SDS-PAGE. PLK was pooled, aliquoted and stored at −80° C. Samples were quality controlled using mass spectrometry.
B. Enzyme Activity+/−Inhibitors was Determined as Follows:
Compounds were added to the plate (1 μl in 100% DMSO). DMSO (2% final) and EDTA (55.5 mM final) were used as controls. Reaction Mix A is prepared as follows at 4° C.:
Reaction Mix A (substrate Mix): • 25 mM HEPES, pH 7.2 • 15 mM MgCl2 • 2 μM ATP • 0.1 μCi/well ^33P-γ ATP (10 Ci/mMol) • 2 μM substrate peptide (Biotin-Ahx-[…]) Reaction Mix B is prepared as follows at 4° C.:
Reaction Mix B (Enzyme Mix) • 25 mM HEPES, pH 7.2 • 15 mM MgCl2 • 0.15 mg/ml BSA • 2 mM DTT • 2-10 nM PLK1 kinase domain
Reaction Mix A (20 μl) is added per well. Reaction Mix B (20 μl) is added per well. Incubate 1.5 hrs. at RT. The enzymatic reaction is stopped with 175 μl of SPA/EDTA bead mix (29 mM EDTA, 2.5 mg/ml Streptavidin-coated SPA in Standard Dulbecco's PBS (without Mg^2+ and Ca^2+), 60 μM ATP). Plates are sealed spun (after a 1 hr incubation at RT) at 1,000×g for 7 min or settled overnight, then plates counted in Packard TopCount for 30 seconds/well.

T1 sequence (P53350 21-346): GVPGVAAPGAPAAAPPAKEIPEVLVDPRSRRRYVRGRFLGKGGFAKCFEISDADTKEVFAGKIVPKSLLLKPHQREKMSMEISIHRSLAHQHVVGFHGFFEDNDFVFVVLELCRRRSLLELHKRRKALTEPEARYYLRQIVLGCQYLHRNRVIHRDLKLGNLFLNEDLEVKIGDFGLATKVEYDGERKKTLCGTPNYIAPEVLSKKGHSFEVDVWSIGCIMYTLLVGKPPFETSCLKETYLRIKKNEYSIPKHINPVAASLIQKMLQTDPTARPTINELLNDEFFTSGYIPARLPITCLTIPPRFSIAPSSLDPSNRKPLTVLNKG

IC50 | Structure (SMILES)
< 100 nM | CC(=O)Nc1ccc(Nc2ncc([N+](=O)[O-])c(Nc3cccc(C)c3C(=O)O)n2)cc1 [Example 33, 2-[(2-{[4-(Acetylamino)phenyl]amino}-5-nitropyrimidin-4-yl)amino]-6-methylbenzoic acid hydrochloride]
100 to 10000 nM | COc1cc(Nc2ncc(Br)c(Nc3ccccc3N3CCOCC3)n2)cc(OC)c1OC [Example 27, 5-Bromo-N^4-(2-morpholin-4-ylphenyl)-N^2-(3,4,5-trimethoxyphenyl)-pyrimidine-2,4-diamine hydrochloride]
< 100 nM | CC(=O)Nc1ccc(Nc2ncc(Br)c(Nc3ccccc3C(C)=O)n2)cc1 [Example 24, N-[4-({4-[(2-Acetylphenyl)amino]-5-bromopyrimidin-2-yl}amino)phenyl]acetamide hydrochloride]
< 100 nM | CC(=O)Nc1ccc(Nc2ncc(Br)c(Nc3ccccc3N3CCOCC3)n2)cc1 [Example 25, N-[4-({5-Bromo-4-[(2-morpholin-4-ylphenyl)amino]pyrimidin-2-yl}amino)phenyl]acetamide hydrochloride]
100 to 10000 nM | CC(=O)Nc1ccc(Nc2ncc([N+](=O)[O-])c(Nc3ccccc3C(=O)OCc3ccccc3)n2)cc1 [Example 30, Benzyl 2-[(2-{[4-(acetylamino)phenyl]amino}-5-nitropyrimidin-4-yl)amino]benzoate hydrochloride]
> 10000 nM | COc1cc(Nc2nc(Nc3ccc(NC(C)=O)cc3)ncc2Br)cc(OC)c1OC [Example 28, N-[4-(5-Bromo-4-[(3,4,5-trimethoxyphenyl)amino]pyrimidin-2-yl}amino)phenyl]acetamide hydrochloride]
< 100 nM | COc1cc(Nc2ncc([N+](=O)[O-])c(Nc3ccccc3C(=O)O)n2)cc(OC)c1OC [Example 1, 2-({5-nitro-2-[(3,4,5-trimethoxyphenyl)amino]pyrimidin-4-yl}amino)benzoic acid hydrochloride]
< 100 nM | COc1cc(Nc2ncc([N+](=O)[O-])c(Nc3cccc4ccc(O)cc34)n2)cc(OC)c1OC [Example 37, 8-({5-Nitro-2-[(3,4,5-trimethoxyphenyl)amino]pyrimidin-4-yl}amino)-2-naphthol hydrochloride]
< 100 nM | COc1cc(Nc2ncc([N+](=O)[O-])c(Nc3ccccc3C(C)=O)n2)cc(OC)c1OC [Example 35, 1-[2-({5-Nitro-2-[(3,4,5-trimethoxyphenyl)amino]pyrimidin-4-yl}amino)phenyl]ethanone hydrochloride]

Continued, compound first:

Structure (SMILES) | IC50
COc1cc(Nc2ncc(C(C)=O)c(Nc3ccccc3C(=O)NC(C)(C)C)n2)cc(OC)c1OC [Example 38, N-(tert-butyl)-2-({5-methyl ketone-2-[(3,4,5-trimethoxyphenyl)amino]pyrimidin-4-yl}amino) benzamide] | < 100 nM
COc1cc(Nc2ncc(Br)c(Nc3ccccc3C(C)=O)n2)cc(OC)c1OC [Example 11, 1-[2-({5-bromo-2-[(3,4,5-trimethoxyphenyl)amino]pyrimidin-4-yl}amino)phenylethanone hydrochloride] | < 100 nM
COC(=O)c1ccc(C(=O)OC)c(Nc2nc(Nc3ccc(NC(C)=O)cc3)ncc2[N+](=O)[O-])c1 [Example 29, Dimethyl 2-[(2-{[4-(acetylamino)phenyl]amino}-5-nitropyrimidin-4-yl)amino]terephthalate hydrochloride] | 100 to 10000 nM
CC(=O)Nc1ccc(Nc2ncc([N+](=O)[O-])c(Nc3ccccc3C(=O)OCC(C)C)n2)cc1 [Example 32, Isobutyl 2-[(2-{[4-(acetylamino)phenyl]amino}-5-nitropyrimidin-4-yl)amino]benzoate hydrochloride] | < 100 nM
CC(=O)Nc1ccc(Nc2ncc([N+](=O)[O-])c(Nc3ccccc3C(=O)O)n2)cc1 [Example 23, 2-[(2-{[4-(Acetylamino)phenyl]amino}-5-nitropyrimidin-4-yl)amino]benzoic acid hydrochloride] | < 100 nM
COC(=O)c1ccccc1Nc1nc(Nc2cc(OC)c(OC)c(OC)c2)ncc1[N+](=O)[O-] [Example 17, Methyl 2-({5-nitro-2-[(3,4,5-trimethoxyphenyl)amino]pyrimidin-4-yl}amino)benzoate hydrochloride] | < 100 nM
CNC(=O)c1ccccc1Nc1nc(Nc2ccc(NC(C)=O)cc2)ncc1[N+](=O)[O-] [Example 13, 2-[(2-{[4-(acetylamino)phenyl]amino}-5-nitropyrimidin-4-yl)amino]-N-methylbenzamide hydrochloride] | < 100 nM
CC(=O)Nc1ccc(Nc2ncc([N+](=O)[O-])c(Nc3ccccc3C(=O)OC3CCCCC3)n2)cc1 [Example 21, Cyclohexyl 2-[(2-{[4-(acetylamino)phenyl]amino}-5-nitropyrimidin-4-yl)amino]benzoate hydrochloride] | < 100 nM
COC(=O)c1c(C)cccc1Nc1nc(Nc2ccc(NC(C)=O)cc2)ncc1[N+](=O)[O-] [Example 31, Methyl 2-[(2-{[4-(acetylamino)phenyl]amino}-5-nitropyrimidin-4-yl)amino]-6-methylbenzoate hydrochloride] | < 100 nM
